The record followed here is patent US20260207563A1, “UREA COMPOUNDS AS ACTIVATORS OF POTASSIUM CHANNELS KV7.2/7.3 USEFUL IN THE TREATMENT OF CNS AND PNS DISORDERS” (ANGELINI PHARMA S.P.A., priority 2022, published 2026).

Common to all, as to assay type: cell-based
The target in experiment [1] is T1, homomeric KV7.4 channel (KCNQ4) (Homo sapiens, UniProt P56696).
T1 construct: host or cells: CHO-K1
The experiment in a line: Automated patch-clamp (Qube) counter-screening assay against KV7.4 channel. The settings on record: CHO-K1 cells expressing KV7.4; class by maximal shift in the Vhalf at 30 μM. The source says: Assessment of In Vitro Potency Against KV7.4 Channels
A counter-screening assay was also developed on the Qube against the homomeric KV7.4 channel (KCNQ4, Uniprot ID P56696). The cell line used was a stably transfected CHO-K1 with constitutive KV7.4 expression supplied by Charles River Laboratories.
CHO-K1 cells stably expressing KV7.4 channels were maintained in the following culture media: • Hams F-12 with GlutaMAX™ (Life Technologies 31765027), • 10% Fetal clone 2 serum (Perbio Science SH30066.03), and • 250 μg/ml Geneticin™ selective antibiotic (G418, Invitrogen 1013-027).
(§1) Cell maintenance, preparation, recording conditions and voltage protocols were all identical to those above.
(§2) Analysis of Data for Assessment of Potency
(§3) 10 concentrations of test compounds were applied to individual wells in quadruplicate to assess potency as a 1 in 3 dilution series from the maximal concentration of 30 μM. The average shift in the voltage for half activation (Vhalf) for each concentration was used to generate concentration-response curves fitted with a 4-parameter logistic model to estimate the EC50 from the point of inflection of the curve and the maximal shift in the Vhalf from the top of the curve.
(§4) The lower the EC50 value, the higher the potency of the analyzed compound. The selectivity criteria is assigned on the basis of the maximal shift in the Vhalf at 30 μM. […] In Table 3, ND means that selectivity was not determined.

The target of experiment [2] is T2, heteromeric KV7.2/KV7.3 channels (KCNQ2, KCNQ3) (Homo sapiens, UniProt O43525+O43526).
T2 construct: expressed in transfected cells; host or cells: CHO-K1
The experiment in a line: Automated patch-clamp (Sophion Qube 384) potency assay against KV7.2/KV7.3 channels. The settings on record: CHO-K1/Kv7.2/Kv7.3 cells; for pEC50: EC50 from concentration-response of shift in Vhalf, 10 concentrations up to 30 μM, read-out: Kv7.2/7.3 EC50; for Kv7.2/7.3 ΔV1/2: maximal shift in the Vhalf from the top of the curve. In outline: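 Whole-cell automated patch clamp on CHO-K1 cells stably expressing human KV7.2/KV7.3, held at −80 mV; I-V steps −100 to +20 mV (1 s) with 0 mV tail pulses, Boltzmann-fitted activation curves. Ten concentrations (1:3 from 30 μM, quadruplicate) versus 0.3% DMSO control; EC50 and maximal shift from 4-parameter fits of Vhalf shift.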
In general terms: Patch clamp records ionic current or voltage across a cell membrane.

Experiment [3] deals with T3, heteromeric KV7.3/KV7.5 channel (KCNQ3, KCNQ5) (Homo sapiens, UniProt O43525+Q9NR82).
T3 construct: host or cells: HEK293
The experiment in a line: Automated patch-clamp counter-screening against KV7.3/KV7.5 channel. The following applies: HEK293 cells expressing Kv7.3/KV7.5; class by maximal shift in the Vhalf at 30 μM. The protocol: Assessment of in vitro potency against KV7.3/KV7.5 channels
Counter-screening was also carried out against the heteromeric KV7.3/KV7.5 channel (KCNQ3, Uniprot ID 043525; KCNQ5, Uniprot ID Q9NR82). The cell line used was a stably transfected HEK293 cell line with constitutive Kv7.3 expression and tetracycline inducible KV7.5 expression supplied by Charles River Laboratories.
Cells were maintained in the following culture media: • DMEM/F-12 with GlutaMAX™ (Life Technologies 31331-028), • 10% Tet Systems FCS (Clonetech 631106), • 500 μg/ml Geneticin™ selective antibiotic (G418, Invitrogen 1013-027), • 5 μg/ml Blasticidin S HCl (InvivoGen ant-bl-5), and • 100 μg/ml Zeocin (InvivoGen: ant-zn-5).
as §1, §2, §3, §4

Molecules are shown by their SMILES. pEC50: −log10 of the molar value.

Consider `C[C@@H](Oc1cc(CNC(=O)NCCC2(C(F)(F)F)CC2)ccn1)C(F)(F)F` [Compound 51, (R)-1-(2-(1-(Trifluoromethyl)cyclopropyl)ethyl)-3-((2-((1,1,1-trifluoropropan-2-yl)oxy)pyridin-4-yl)methyl)urea], for which, in experiment [1], the Kv7.4 selectivity criteria result is recorded as “A (Selective compounds showed Kv7.4 and/or Kv7.3/7.5 ΔV1/2 equal to or lower than 15 mV (letter A in table 3))”. In experiment [2], the pEC50 was 6.54 and the “Kv7.2/7.3 ΔV1/2” value is recorded as 33.62 mV. In experiment [3], the Kv7.3/7.5 selectivity criteria result is on record as “A (Selective compounds showed Kv7.4 and/or Kv7.3/7.5 ΔV1/2 equal to or lower than 15 mV (letter A in table 3))”.
In the case of `O=C(NCCC1(C(F)(F)F)CC1)NCc1ccnc(N2CC(C(F)(F)F)C2)c1` [Compound 44, 1-((2-(3-(Trifluoromethyl)azetidin-1-yl)pyridin-4-yl)methyl)-3-(2-(1-(trifluoromethyl)cyclopropyl)ethyl)urea], in experiment [1], the Kv7.4 selectivity criteria result is “A (Selective compounds showed Kv7.4 and/or Kv7.3/7.5 ΔV1/2 equal to or lower than 15 mV (letter A in table 3))”. In experiment [2], the pEC50 is 5.20 and the “Kv7.2/7.3 ΔV1/2” value turned out to be 17.02 mV. Moreover, the Kv7.3/7.5 selectivity criteria result in experiment [3] was “A (Selective compounds showed Kv7.4 and/or Kv7.3/7.5 ΔV1/2 equal to or lower than 15 mV (letter A in table 3))”.
For `O=C(NCCC1(C(F)(F)F)CC1)NCc1ccnc(OCc2ncco2)c1` [Compound 13, 1-((2-(Oxazol-2-ylmethoxy)pyridin-4-yl)methyl)-3-(2-(1-(trifluoromethyl)cyclopropyl)ethyl)urea], in experiment [1], the Kv7.4 selectivity criteria entry is recorded as “A (Selective compounds showed Kv7.4 and/or Kv7.3/7.5 ΔV1/2 equal to or lower than 15 mV (letter A in table 3))”. For the same compound, in experiment [2], the pEC50 was 5.35 and the “Kv7.2/7.3 ΔV1/2” value stood at 22.29 mV. Besides, the Kv7.3/7.5 selectivity criteria entry in experiment [3] is reported as “A (Selective compounds showed Kv7.4 and/or Kv7.3/7.5 ΔV1/2 equal to or lower than 15 mV (letter A in table 3))”.
Turning to `O=C(NCc1ccnc(OCC(F)(F)F)c1)Nc1cc(F)cc(Cl)c1` [Compound 77, 1-(3-Chloro-5-fluorophenyl)-3-((2-(2,2,2-trifluoroethoxy)pyridin-4-yl)methyl)urea], in experiment [1], the Kv7.4 selectivity criteria result is listed as “B (Non-selective compounds showed Kv7.4 and/or Kv7.3/7.5 ΔV1/2 higher than 15 mV (letter B in table 3))”. In experiment [2], the pEC50 is 6.26 and the “Kv7.2/7.3 ΔV1/2” value came to 32.37 mV. Moreover, the Kv7.3/7.5 selectivity criteria result in experiment [3] is given as “A (Selective compounds showed Kv7.4 and/or Kv7.3/7.5 ΔV1/2 equal to or lower than 15 mV (letter A in table 3))”.
In the same order, the values of `O=C(NCc1ccnc(OCC(F)(F)F)c1)N[C@H]1CCc2ccc(F)cc21` [Compound 89] are “B (Non-selective compounds showed Kv7.4 and/or Kv7.3/7.5 ΔV1/2 higher than 15 mV (letter B in table 3))”, 5.66, 18.85 mV and “A (Selective compounds showed Kv7.4 and/or Kv7.3/7.5 ΔV1/2 equal to or lower than 15 mV (letter A in table 3))”.
With `O=C(NCc1ccnc(OCC(F)(F)F)c1)NC1(CO)Cc2ccccc2C1` [Compound 146], the Kv7.4 selectivity criteria result in experiment [1] is “B (Non-selective compounds showed Kv7.4 and/or Kv7.3/7.5 ΔV1/2 higher than 15 mV (letter B in table 3))”. Besides, in experiment [2], the pEC50 was 5.18 and the “Kv7.2/7.3 ΔV1/2” value was found to be 30.86 mV. Besides, the Kv7.3/7.5 selectivity criteria entry in experiment [3] is given as “B (Non-selective compounds showed Kv7.4 and/or Kv7.3/7.5 ΔV1/2 higher than 15 mV (letter B in table 3))”.
As to `O=C(NCc1ccnc(OCC(F)(F)F)c1)NCC1(C(F)(F)F)CC1` [Compound 35, 1-((2-(2,2,2-Trifluoroethoxy)pyridin-4-yl)methyl)-3-((1-(trifluoromethyl)cyclopropyl)methyl)urea], in experiment [1], the Kv7.4 selectivity criteria result is on record as “B (Non-selective compounds showed Kv7.4 and/or Kv7.3/7.5 ΔV1/2 higher than 15 mV (letter B in table 3))”. Moreover, in experiment [2], the pEC50 is 6.19 and the “Kv7.2/7.3 ΔV1/2” value came to 38.22 mV. The Kv7.3/7.5 selectivity criteria entry in experiment [3] was “B (Non-selective compounds showed Kv7.4 and/or Kv7.3/7.5 ΔV1/2 higher than 15 mV (letter B in table 3))”.
Regarding `C#CCOc1cc(CNC(=O)NCC2CCC(F)(F)CC2)ccn1` [Compound 161], the Kv7.4 selectivity criteria entry in experiment [1] is listed as “A (Selective compounds showed Kv7.4 and/or Kv7.3/7.5 ΔV1/2 equal to or lower than 15 mV (letter A in table 3))”. Also, in experiment [2], the pEC50 is 5.15 and the “Kv7.2/7.3 ΔV1/2” value is reported as 26.66 mV. In addition, the Kv7.3/7.5 selectivity criteria entry in experiment [3] was “A (Selective compounds showed Kv7.4 and/or Kv7.3/7.5 ΔV1/2 equal to or lower than 15 mV (letter A in table 3))”.
With `O=C(NCc1ccnc(OCC(F)(F)F)c1)NCC1Cc2ccccc2C1` [Compound 145], the Kv7.4 selectivity criteria result in experiment [1] was “A (Selective compounds showed Kv7.4 and/or Kv7.3/7.5 ΔV1/2 equal to or lower than 15 mV (letter A in table 3))”. For the same compound, in experiment [2], the pEC50 was 5.79 and the “Kv7.2/7.3 ΔV1/2” value was determined as 23.71 mV. Moreover, the Kv7.3/7.5 selectivity criteria entry in experiment [3] is given as “A (Selective compounds showed Kv7.4 and/or Kv7.3/7.5 ΔV1/2 equal to or lower than 15 mV (letter A in table 3))”.
Regarding `O=C(NCCC1(C(F)(F)F)CC1)NCc1ccnc(OCC2CCOCC2)c1` [Compound 12, 1-((2-((Tetrahydro-2H-pyran-4-yl)methoxy)pyridin-4-yl)methyl)-3-(2-(1-(trifluoromethyl)cyclopropyl)ethyl)urea], the Kv7.4 selectivity criteria entry in experiment [1] is “A (Selective compounds showed Kv7.4 and/or Kv7.3/7.5 ΔV1/2 equal to or lower than 15 mV (letter A in table 3))”. Moreover, in experiment [2], the pEC50 was 5.12 and the “Kv7.2/7.3 ΔV1/2” value came out at 13.2 mV. The Kv7.3/7.5 selectivity criteria result in experiment [3] is on record as “A (Selective compounds showed Kv7.4 and/or Kv7.3/7.5 ΔV1/2 equal to or lower than 15 mV (letter A in table 3))”.
For `O=C(NCc1ccnc(OCC(F)(F)F)c1)NC1CCc2ccccc21` (stereo not drawn) [Compound 137], in experiment [1], the Kv7.4 selectivity criteria result is given as “B (Non-selective compounds showed Kv7.4 and/or Kv7.3/7.5 ΔV1/2 higher than 15 mV (letter B in table 3))”. Besides, in experiment [2], the pEC50 is 6.07 and the “Kv7.2/7.3 ΔV1/2” value is recorded as 22.07 mV. In addition, in experiment [3], the Kv7.3/7.5 selectivity criteria entry was “B (Non-selective compounds showed Kv7.4 and/or Kv7.3/7.5 ΔV1/2 higher than 15 mV (letter B in table 3))”.
Turning to `O=C(NCc1ccnc(C(F)(F)F)c1)NCC1CCCCC1` [Compound 100], in experiment [1], the Kv7.4 selectivity criteria entry is reported as “A (Selective compounds showed Kv7.4 and/or Kv7.3/7.5 ΔV1/2 equal to or lower than 15 mV (letter A in table 3))”. Besides, in experiment [2], the pEC50 is 5.40 and the “Kv7.2/7.3 ΔV1/2” value stood at 24.71 mV. Moreover, in experiment [3], the Kv7.3/7.5 selectivity criteria entry was “B (Non-selective compounds showed Kv7.4 and/or Kv7.3/7.5 ΔV1/2 higher than 15 mV (letter B in table 3))”.
As for `Cc1ccccc1NC(=O)NCc1ccnc(OCC(F)(F)F)c1` [Compound 46, 1-(o-Tolyl)-3-((2-(2,2,2-trifluoroethoxy)pyridin-4-yl)methyl)urea], the Kv7.4 selectivity criteria entry in experiment [1] is “B (Non-selective compounds showed Kv7.4 and/or Kv7.3/7.5 ΔV1/2 higher than 15 mV (letter B in table 3))”. Moreover, in experiment [2], the pEC50 was 6.36 and the “Kv7.2/7.3 ΔV1/2” value was 21.41 mV. In experiment [3], the Kv7.3/7.5 selectivity criteria result was “B (Non-selective compounds showed Kv7.4 and/or Kv7.3/7.5 ΔV1/2 higher than 15 mV (letter B in table 3))”.
As for `Cc1cccc2c1C(NC(=O)NCc1ccnc(OCC(F)(F)F)c1)CC2` (stereo not drawn) [Compound 116], the Kv7.4 selectivity criteria entry in experiment [1] is “A (Selective compounds showed Kv7.4 and/or Kv7.3/7.5 ΔV1/2 equal to or lower than 15 mV (letter A in table 3))”. Moreover, in experiment [2], the pEC50 was 5.80 and the “Kv7.2/7.3 ΔV1/2” value came out at 31.15 mV. For the same compound, in experiment [3], the Kv7.3/7.5 selectivity criteria entry is “B (Non-selective compounds showed Kv7.4 and/or Kv7.3/7.5 ΔV1/2 higher than 15 mV (letter B in table 3))”.
On the same counts, the results for `O=C(NCCC1(C(F)(F)F)CC1)NCc1ccc(OCC(F)(F)F)nc1` [Compound 80, 1-((6-(2,2,2-Trifluoroethoxy)pyridin-3-yl)methyl)-3-(2-(1-(trifluoromethyl)cyclopropyl)ethyl)urea] are “B (Non-selective compounds showed Kv7.4 and/or Kv7.3/7.5 ΔV1/2 higher than 15 mV (letter B in table 3))”, 5.41, 28.15 mV and “A (Selective compounds showed Kv7.4 and/or Kv7.3/7.5 ΔV1/2 equal to or lower than 15 mV (letter A in table 3))”.
